Three molecules from patent publication US12636271B2, “Combination comprising N-acetyl-L-cysteine and its use” (IASOMAI AB, priority 2011, dated 2026) can be followed below.

One test relates to HL60 cells. Briefly: Antioxidant effect against menadione oxidative stimulus, CM-H2DCFDA fluorescence. The class given is cell-based, human. To be noted: concentrations as in FIGS. 5-7.
A further test concerns K562 cells. Described as above. The test is classed as cell-based, human. As to conditions: 0.2 mM menadione, 0.4 mM NAC, 0.2 mM SeMet, 2 mM Mel (FIG. 4). As to the method:
The human lymphoblastoid HL60 and the proerythoblastoid K562 cell lines were used, grown at 37° C. in RPMI 1640 medium (Invitrogen, Gibco, Milano, Italy), supplemented with 10% fetal bovine serum, 5 μg/ml penicillin, 5 μg/ml streptomycin, 2 mM glutamine, and routinely subcultured three times a week. Cells were treated either with menadione alone (control), with NAC only, with NAC+Se-methionine (SeMet), with NAC+Mel, or with NAC+SeMet+Mel. In cases of SeMet supplementation, such supplementation was performed two days before experiments, by using a SeMet solution in buffer (concentrations as indicated in description of FIGS. 4-7). […]
The effect of NAC, Mel, SeMet and of a combination of these substances in protecting the cells against an oxidative stimulus was detected by using the fluorescent probe 5-(and-6)-chloromethyl-2′,7′-dichlorodihydrofluorescein diacetate, acetyl ester (CM-H2DCFDA) (Invitrogen, Molecular Probes). […] The increase in hydroperoxides (mainly H2O2) within the cell is thus monitored by increase in fluorescence. […]
Cells were counted, and care was taken to keep the ratio between cells and the fluorescent probe constant. […] Two μ1 of a solution of CM-H2DCFDA in DMSO were then added and the fluorescence intensity read versus time. […] During intensity readings, samples were subjected to continuous mild stirring. […]

The test system of test [1] is patients suffering from varying kinds of anxiety. Briefly: Anxiety trial, rated pain intensity before and after treatment. The class given is in vivo, human. To be noted: n = 20. The text has this:
In a method in accordance with embodiments of this disclosure a medical product comprising NAC, SeMet and Mel in accordance with embodiments was given to a plurality of groups of patients in the treatment of anxiety. The method of treating an anxiety disorder comprises administering to a patient in need thereof, a medical product consisting of one or more excipients and active agents consisting of (i) N-acetyl-L-cysteine; (ii) selenium in the form of selenomethionine; and (iii) melatonin and/or physiologically acceptable salts thereof.
(§1) In a trial the NAC, SeMet and Mel medical product, herein also called NAC-factor 3, was administered to the groups of patients in a set-up to compare the anxiolytic effect of placebo, NAC and the medical product consisting of NAC, SeMet and Mel in anxiolysis. The groups of patients were ordered according to the following different causes of anxiety: Sporadic anxiety (i.e. healthy patients) (SA), Social phobia (SP), Agoraphobia (AP), Panic disorder (PD), Generalized anxiety disorder (GAD), Obsessive-compulsive disorders (OCD), and Posttraumatic stress disorder (PTSD).
(§2) The patients rated their experienced intensity of pain from the anxiety before and after being exposed to medication with one of placebo, NAC and the medical product consisting of NAC, SeMet and Mel (in short NACSeMel), respectively. The subjective pain-intensity was rated by the patients using a 5 graded verbal rating scale ranging from None/Ignorable=0, Slight=1, Moderate=2, Great=3, Excruciating=4, where the corresponding numbers 0-4 are used to illustrate the responses in accompanying graphs.
(§3) In studying the results of the rating, the change in rating that the group delivered was expressed as a measure of the group's relative position RP in order to assess whether there was a systematic change in position on the rating scale. The relative position, i.e. the change in rating is negative if the rating indicates less pain intensity after exposure to treatment compared to before treatment, and positive if the rating indicates higher pain intensity after exposure to treatment. A range of values for the relative position RP was calculated for a 95% confidence interval CI.

The test system of test [2] is patients suffering from generalized anxiety disorder. The description is as above. The test is classed as in vivo, human. To be noted: n = 8. On the procedure: as §1, §2, §3
(§4) The corresponding treatment design as described above was used with patients rating the pain intensity for specific causes of anxiety, viz. Recurrent sporadic social anxiety, Social Phobia/Agoraphobia, Panic disorder, Generalized anxiety disorder, Obsessive compulsive disorder and Posttraumatic stress disorder. The results are presented in the following Table 3 and in FIG. 11-FIG. 16.

The test system of test [3] is patients suffering from obsessive compulsive disorder. The description is as above. The test is classed as in vivo, human. To be noted: n = 7. As to the method:
as §1, §2, §3, §4

Test [4] concerns patients suffering from panic disorder. The description is as above. The test is classed as in vivo, human. As to conditions: n = 7. On the procedure: as §1, §2, §3, §4
Test [5] deals with patients suffering from posttraumatic stress disorder. The test is described as above. The class given is in vivo, human. To be noted: n = 5. On the procedure: as §1, §2, §3, §4
Test [6] has as its system patients suffering from recurrent sporadic social anxiety. The description is as above. The test is classed as in vivo, human. As to conditions: n = 12. On the procedure:
as §1, §2, §3, §4

In test [7] the test system is patients suffering from social phobia/agoraphobia. The description is as above. The test is classed as in vivo, human. To be noted: n = 6. As to the method: as §1, §2, §3, §4
Test [8] relates to patients suffering from sporadic insomnia. Briefly: Sporadic insomnia trial, rated intensity before and after treatment. The class given is in vivo, human. As to conditions: group of 24 patients.
The test system of test [9] is patients suffering from fatigue. Kind of test: Fatigue trial, rated intensity before and after treatment. The test is classed as in vivo, human. As to conditions: group of 20 patients. The text has this: In a method, conducted in a similar manner to that described in the previous Examples 6 and 7, and in accordance with embodiments of this disclosure a medical product comprising NAC, SeMet and Mel in accordance with embodiments was given to a plurality of groups of patients in the treatment of fatigue. The method of treating fatigue comprises administering to a patient in need thereof, a medical product consisting of one or more excipients and active agents consisting of (i) N-acetyl-L-cysteine; (ii) selenium in the form of selenomethionine; and (iii) melatonin and/or physiologically acceptable salts thereof. Fatigue may be related and due to anxiety, and/or to sporadic insomnia or have other independent causes. Fatigue is defined as a state of tiredness that remain despite rest or sleep, and that tend to impair cognitive and/or physical ability and performance.
In a trial the NAC, SeMet and Mel medical product, herein also called NAC-factor 3, was administered to a group of patients in a set-up to compare the effect of placebo, NAC and the medical product consisting of NAC, SeMet and Mel in treatment of fatigue.
The patients rated their experienced intensity of fatigue before and after being exposed to medication with one of placebo, NAC and the medical product consisting of NAC, SeMet and Mel (in short NACSeMel), respectively. The subjective intensity was rated by the patients using a 5 graded verbal rating scale ranging from None/Ignorable=0, Slight=1, Moderate=2, Great=3, Excruciating=4, where the corresponding numbers 0-4 are used to illustrate the responses in accompanying graphs.
In studying the results of the rating, the change in rating that the group delivered was expressed as a measure of the group's relative position RP in order to assess whether there was a systematic change in position on the rating scale. The relative position, i.e. the change in rating is negative if the rating indicates less intensity after exposure to treatment compared to before treatment, and positive if the rating indicates higher intensity after exposure to treatment. A range of values for the relative position RP was calculated for a 95% confidence interval CI.

Where [10] appears, read: negative = less intensity after treatment.

Molecules are shown by their SMILES.

Experimental for HL60 cells: The human lymphoblastoid HL60 and the proerythoblastoid K562 cell lines were used, grown at 37° C. in RPMI 1640 medium (Invitrogen, Gibco, Milano, Italy), supplemented with 10% fetal bovine serum, 5 μg/ml penicillin, 5 μg/ml streptomycin, 2 mM glutamine, and routinely subcultured three times a week. Cells were treated either with menadione alone (control), with NAC only, with NAC+Se-methionine (SeMet), with NAC+Mel, or with NAC+SeMet+Mel. In cases of SeMet supplementation, such supplementation was performed two days before experiments, by using a SeMet solution in buffer (concentrations as indicated in description of FIGS. 4-7). In cases of Mel supplementation, such supplementation was performed 20 hours before experiments, by using a solution in ethanol (concentrations as indicated in description of FIGS. 4-7). Ethanol concentration in growth medium was <1.3% and controls only with this solvent were also grown in parallel.
The effect of NAC, Mel, SeMet and of a combination of these substances in protecting the cells against an oxidative stimulus was detected by using the fluorescent probe 5-(and-6)-chloromethyl-2′,7′-dichlorodihydrofluorescein diacetate, acetyl ester (CM-H2DCFDA) (Invitrogen, Molecular Probes). CM-H2DCFDA is a cell-permeant indicator for reactive oxygen species that is not fluorescent until removal of its acetate groups by intracellular esterases, and oxidation within the cell. The increase in hydroperoxides (mainly H2O2) within the cell is thus monitored by increase in fluorescence. […]
Cells were counted, and care was taken to keep the ratio between cells and the fluorescent probe constant. […] Two μ1 of a solution of CM-H2DCFDA in DMSO were then added and the fluorescence intensity read versus time. After the first 200 sec of reading, a proper aliquot of NAC solution in phosphate buffer (concentrations as indicated in description of FIGS. 4-7), and 10 μl of a 0.1 M solution of menadione in ethanol were added, and the fluorescence intensity reading continued. During intensity readings, samples were subjected to continuous mild stirring. […]

As to `COc1ccc2[nH]cc(CCNC(C)=O)c2c1` [Mel, melatonin], the “oxidative response (slope of DCFDA fluorescence intensity increase) after menadione” value in the test with HL60 cells is recorded as “unfavorable pro-oxidant effect”.
For the molecule `CC(=O)N[C@@H](CS)C(=O)O` [NAC, N-acetyl-L-cysteine], the “oxidative response (slope of DCFDA fluorescence intensity increase) after menadione” value with HL60 cells is reported as “relevant reduction in the kinetics of this intensity increase”. Further, in the test on K562 cells, the “oxidative response (slope of DCFDA fluorescence intensity increase) after menadione” value is reported as “relevant reduction in the kinetics of this intensity increase”. Further, in test [1], the “number of patients that rated higher pain intensity after treatment” value is listed as 5 patients, the “number of patients that rated lower pain intensity after treatment” value was determined as 9 patients, the “patients that rated higher pain intensity after treatment” value was determined as 25% and the “patients that rated lower pain intensity after treatment” value stood at 40%. For the same molecule, the “patients that rated unchanged level” value in test [1] was 35%. In addition, in test [2], the “number of patients that rated lower” value is 7 patients, the “number of patients that rated unchanged level” value turned out to be 1 patients and the “relative position RP” value is recorded as “RP −0.81”. In addition, in [3], the “number of patients that rated higher” value was 1 patients, the “number of patients that rated lower” value is recorded as 4 patients, the “number of patients that rated unchanged level” value is given as 2 patients and the “relative position RP” value is listed as “RP −0.27”. In [4], the “number of patients that rated lower” value was determined as 3 patients, the “number of patients that rated unchanged level” value is recorded as 4 patients and the “relative position RP” value is listed as “RP −0.35”. Moreover, in test [5], the “number of patients that rated lower” value came out at 3 patients, the “number of patients that rated unchanged level” value is 2 patients and the “relative position RP” value is given as “RP −0.60”. In [6], the “number of patients that rated lower” value was found to be 9 patients, the “number of patients that rated unchanged level” value is listed as 2 patients and the “relative position RP” value is reported as “RP −0.46”. Moreover, in [7], the “number of patients that rated lower” value was “↓3, ~3 patients”; the “number of patients that rated unchanged level” value is given as “↓3, ~3 patients”; the “relative position RP” value was “RP −0.31”. Further, in test [8], the “number of patients that rated lower sporadic insomnia” value amounted to 15 patients, the “number of patients that rated unchanged intensity” value came out at 9 patients, the “patients that rated lower sporadic insomnia” value came out at 62% and the “patients that rated unchanged intensity” value stood at 38%. Also, the “relative position RP” value in test [8] (setting [10]) was −0.37 (95% CI −0.49 to −0.25). Besides, in test [9], the “number of patients that rated increased level of fatigue” value is reported as 3 patients, the “number of patients that rated lower fatigue” value amounted to 9 patients, the “number of patients that rated unchanged intensity of fatigue” value is listed as 8 patients and the “patients that rated increased level of fatigue” value amounted to 15%. Besides, in test [9], the “patients that rated lower fatigue” value stood at 45% and the “patients that rated unchanged intensity of fatigue” value stood at 40%. Further, the “relative position RP” value in test [9] (setting [10]) is reported as −0.26 (95% CI −0.49 to −0.03).
`C[Se]CC[C@H](N)C(=O)O` [SeMet, selenomethionine]: in the test with HL60 cells, the “oxidative response (slope of DCFDA fluorescence intensity increase) after menadione” value is recorded as “unfavorable pro-oxidant effect”.
